Results as given in patent US4493830A, “Method for the treatment of idiopathic headache attacks, in particular migraine and cluster headache” (Istituto Farmacologico Serono of Rome, priority 1983, dated 1985).
Structures can show the parent of a compound that is named as a salt.

Test system: cluster headache attacks
Experiment: Double-blind randomized trial of treatment of cluster headache attacks in hospitalized patients
Format: in vivo
Experimental: Six consenting patients, suffering from cluster headache, were hospitalized. Two presented with a chronic state (more than one year) while the other four were in an attack stage at the moment of entering hospital. The patients received no other pharmaceuticals during the four days prior to commencing the study.
In each patient attacks lasted an average of 1-2 hours.
At the beginning of the attack, 10 minutes after the onset of pain, the patients received one of the following treatments:
500 mcg Somatostatin in 50 ml physiological solution, i.v.;
1 ml physiological solution i.m.;
50 ml physiological solution i.v.;
250 mcg Ergotamine Tartrate in 1 ml physiological solution i.m.
Duration of venous infusion was 20 minutes (50 drops per min.), and was started simultaneously with the i.m. injection. Treatments and patients were randomized and the trial was carried out in double blind.
In total, 9 attacks were treated for each patient, who received treatments (a) (b) or (c) 3 times; in this way, each treatment was used 18 times.
Pain intensity was ascertained every 10 minutes on a visible scale. Values were recorded on the ordinate against the time which was recorded on the abscissa.
3 parameters were used for statistical assessment; maximum intensity of pain expressed in arbitrary units; duration of pain expressed in minutes; area below the curve expressed in arbitrary units. During infusion with Somatostatin, blood pressure and pulse rates were recorded every 10 minutes for an hour.

[1] = versus physiological solution, Somatostatin 500 mcg i.v. infusion or Ergotamine Tartrate 250 mcg i.m.

Row | Structure (SMILES) | Reduction of pain duration as compared with placebo (Somatostatin 500 mcg i.v. infusion or Ergotamine Tartrate 250 mcg i.m.) | Maximum pain intensity (Somatostatin 500 mcg i.v. infusion or Ergotamine Tartrate 250 mcg i.m., physiological solution 7.1±0.3) | Area under the pain curve (Somatostatin 500 mcg i.v. infusion or Ergotamine Tartrate 250 mcg i.m., physiological solution 43.8±6.2) | Duration of pain (cluster headache patients, Somatostatin 500 mcg i.v. infusion over 20 min or Ergotamine Tartrate 250 mcg i.m., 18 attacks per treatment, physiological solution 93±10) | Reduction of maximum pain intensity [1] | Reduction of the pain area [1] | Variations in blood pressure or pulse rates during infusion (500 mcg i.v. infusion, recorded every 10 minutes for an hour) | Incidence of side-effects as compared with Ergotamine (human, in vivo)
1 | CN1C[C@H](C(=O)N[C@]2(C)O[C@@]3(O)[C@@H]4CCCN4C(=O)[C@H](Cc4ccccc4)N3C2=O)C=C2c3cccc4[nH]cc(c34)C[C@H]21 [Ergotamine, Ergotamine Tartrate] | 41% | 6.2±0.3 arbitrary units | 23.3±3.1 arbitrary units | 55 ± 8 min | 13% | 47% | – | –
2 | C[C@H](N)C(=O)NCC(=O)N[C@H]1CSSC[C@@H](C(=O)O)NC(=O)[C@H](CO)NC(=O)[C@H]([C@@H](C)O)NC(=O)[C@H](Cc2ccccc2)NC(=O)[C@H]([C@@H](C)O)NC(=O)[C@H](CCCCN)NC(=O)[C@H](Cc2c[nH]c3ccccc23)NC(=O)[C@H](Cc2ccccc2)NC(=O)[C@H](Cc2ccccc2)NC(=O)[C@H](CC(N)=O)NC(=O)[C@H](CCCCN)NC1=O [Somatostatin] | – | – | – | – | – | – | nor were there significant variations | minor incidence of side-effects
